Patent US20260184710A1, “CASITAS B-LINEAGE LYMPHOMA PROTOONCOGENE B (CBL-B) DEGRADING COMPOUNDS AND ASSOCIATED METHODS OF USE” (Arvinas Operations, Inc., priority 2022, published 2026)

Experiments:
Cbl-b [1] = molecular target: T1, Cbl-b (Homo sapiens, UniProt Q13191); assay: Cbl-b Degradation Method A (FACS, anti-Cbl-b antibody staining); type: cell-based; conditions: Cbl-b-HiBit KI Jurkat Cells, incubated at least 20 hours; for DC50: half maximal degradation, read-out: Cbl-b Degredation Method A IC50; for Dmax: Jurkat, maximum degradation observed, read-out: Cbl-b Degredation Method A Dmax (%)
T1 construct: Cbl-b-HiBit KI Jurkat Cells were purchased from Promega; host or cells: Cbl-b-HiBiT knock-in Jurkat cells
T1 sequence (Q13191 whole entry): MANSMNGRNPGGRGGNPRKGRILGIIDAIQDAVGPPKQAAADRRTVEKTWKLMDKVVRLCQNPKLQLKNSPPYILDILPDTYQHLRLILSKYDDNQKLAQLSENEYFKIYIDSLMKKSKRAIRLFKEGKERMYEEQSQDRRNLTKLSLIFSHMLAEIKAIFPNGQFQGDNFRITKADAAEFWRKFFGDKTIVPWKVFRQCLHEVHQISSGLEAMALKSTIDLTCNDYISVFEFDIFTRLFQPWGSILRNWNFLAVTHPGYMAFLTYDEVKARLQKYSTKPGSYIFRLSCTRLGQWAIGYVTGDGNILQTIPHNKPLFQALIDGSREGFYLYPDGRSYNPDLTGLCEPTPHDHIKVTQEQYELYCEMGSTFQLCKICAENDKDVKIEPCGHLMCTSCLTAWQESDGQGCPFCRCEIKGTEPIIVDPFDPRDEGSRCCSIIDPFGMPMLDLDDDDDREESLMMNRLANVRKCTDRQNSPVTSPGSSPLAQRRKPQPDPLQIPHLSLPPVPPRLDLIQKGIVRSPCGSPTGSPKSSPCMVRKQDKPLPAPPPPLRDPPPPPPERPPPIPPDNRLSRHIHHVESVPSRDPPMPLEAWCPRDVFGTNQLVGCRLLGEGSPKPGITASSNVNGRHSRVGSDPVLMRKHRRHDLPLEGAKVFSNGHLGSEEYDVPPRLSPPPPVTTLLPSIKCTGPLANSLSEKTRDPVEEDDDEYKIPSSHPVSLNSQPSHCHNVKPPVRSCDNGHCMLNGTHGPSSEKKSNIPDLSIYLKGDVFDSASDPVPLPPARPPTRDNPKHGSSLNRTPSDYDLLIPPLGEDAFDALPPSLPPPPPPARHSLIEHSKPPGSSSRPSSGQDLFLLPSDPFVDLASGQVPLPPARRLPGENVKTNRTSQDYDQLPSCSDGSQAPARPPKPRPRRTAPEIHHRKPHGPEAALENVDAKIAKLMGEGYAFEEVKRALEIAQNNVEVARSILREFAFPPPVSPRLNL
Outline: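 Readout is flow cytometry of fixed, permeabilized cells immunostained for Cbl-b (primary 1:200, AF488 secondary). Cells were Cbl-b-HiBit knock-in Jurkat, exposed to compound ≥20 h at 37 °C; half-maximal degradation concentration (DC50) and maximal degradation (Dmax) calculated relative to control.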

Cbl-b [2] = molecular target: T1, Cbl-b; assay: Cbl-b Degradation Method B (Nano-Glo HiBiT lytic detection); type: cell-based; conditions: Cbl-b-HiBit KI Jurkat Cells, incubated at least 6-24 hours; for DC50: half maximal degradation, read-out: Cbl-b Degredation Method B IC50; for Dmax: read-out: Cbl-b Degredation Method B Dmax (%)
Outline: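 An 11-point, 3-fold compound dilution was applied for 6-24 hours to Jurkat cells carrying HiBiT-tagged endogenous Cbl-b. Lytic HiBiT luminescence quantified residual protein. Outputs are DC50 and Dmax relative to DMSO control.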

DC50 (Cbl-b [1]) [nM] | Dmax (Cbl-b [1]) [%] | DC50 (Cbl-b [2]) [nM] | Dmax (Cbl-b [2]; maximum degradation observed) [%] | Cbl-b Degredation Method B Dmax (%) (Cbl-b [2]; maximum degradation observed) | Structure (SMILES)
< 5 | 35 to 70 | < 5 | 35 to 70 | – | CC1c2nc(N3CCC(O[C@H]4CC[C@@H](CN5CCN(C[C@H]6CCCN(Cc7cc8c(c(C(F)(F)F)c7)CN(c7cccc(C9(Cc%10nncn%10C)COC9)c7)C8=O)C6)CC5)CC4)CC3)ccc2C(=O)N1C1CCC(=O)NC1=O (stereo partly drawn) [Example 160, 3-[7-methyl-5-oxo-2-(4-{[(1r,4r)-4-[(4-{[(3S)-1-{[2-(3-{3-[(4-methyl-4H-1,2,4-triazol-3-yl)methyl]oxetan-3-yl}phenyl)-3-oxo-7-(trifluoromethyl)-2,3-dihydro-1H-isoindol-5-yl]methyl}piperidin-3-yl]methyl}piperazin-1-yl)methyl]cyclohexyl]oxy}piperidin-1-yl)-5H,6H,7H-pyrrolo[3,4-b]pyridin-6-yl]piperidine-2,6-dione]
> 500 | – | > 500 | – | – | Cn1cnnc1CC1(c2cccc(N3Cc4c(cc(CN5CCC(CN6CCC(c7ccc8c(c7)C(=O)N(C7CCC(=O)NC7=O)C8=O)CC6)CC5)cc4C(F)(F)F)C3=O)c2)COC1 (stereo not drawn) [Example 82, 2-(2,6-dioxopiperidin-3-yl)-5-{1-[(1-{[2-(3-{3-[(4-methyl-4H-1,2,4-triazol-3-yl)methyl]oxetan-3-yl}phenyl)-3-oxo-7-(trifluoromethyl)-2,3-dihydro-1H-isoindol-5-yl]methyl}piperidin-4-yl)methyl]piperidin-4-yl}-2,3-dihydro-1H-isoindole-1,3-dione]
> 500 | – | > 500 | – | – | Cn1cnnc1CC1(c2cccc(N3Cc4c(cc(CN5CCN(C6CCC7(CC6)CCN(c6ccc8c(c6)C(=O)N(C6CCC(=O)NC6=O)C8=O)CC7)CC5)cc4C(F)(F)F)C3=O)c2)COC1 (stereo not drawn) [Example 105, 2-(2,6-dioxopiperidin-3-yl)-5-[9-(4-{[2-(3-{3-[(4-methyl-4H-1,2,4-triazol-3-yl)methyl]oxetan-3-yl}phenyl)-3-oxo-7-(trifluoromethyl)-2,3-dihydro-1H-isoindol-5-yl]methyl}piperazin-1-yl)-3-azaspiro[5.5]undecan-3-yl]-2,3-dihydro-1H-isoindole-1,3-dione]
> 500 | – | > 500 | – | – | Cn1cnnc1CC1(c2cccc(N3Cc4c(cc(N5CC6(CCN(Cc7ccc8c(c7)C(=O)N(C7CCC(=O)NC7=O)C8=O)CC6)C5)cc4C(F)(F)F)C3=O)c2)COC1 (stereo not drawn) [Example 130, 2-(2,6-dioxopiperidin-3-yl)-5-({2-[2-(3-{3-[(4-methyl-4H-1,2,4-triazol-3-yl)methyl]oxetan-3-yl}phenyl)-3-oxo-7-(trifluoromethyl)-2,3-dihydro-1H-isoindol-5-yl]-2,7-diazaspiro[3.5]nonan-7-yl}methyl)-2,3-dihydro-1H-isoindole-1,3-dione]
50 to 500 | 35 to 70 | > 500 | – | – | Cn1cnnc1CC1(c2cccc(N3Cc4c(cc(N5CC6(CN(c7ccc8c(c7)C(=O)N(C7CCC(=O)NC7=O)C8=O)C6)C5)cc4C(F)(F)F)C3=O)c2)COC1 (stereo not drawn) [Example 123, 2-(2,6-dioxopiperidin-3-yl)-5-{6-[2-(3-{3-[(4-methyl-4H-1,2,4-triazol-3-yl)methyl]oxetan-3-yl}phenyl)-3-oxo-7-(trifluoromethyl)-2,3-dihydro-1H-isoindol-5-yl]-2,6-diazaspiro[3.3]heptan-2-yl}-2,3-dihydro-1H-isoindole-1,3-dione]
> 500 | – | > 500 | – | – | Cn1cnnc1CC1(c2cccc(N3Cc4c(cc(N5CC(OCC6CCN(c7ccc8c(c7)CN(C7CCC(=O)NC7=O)C8=O)CC6)C5)cc4C(F)(F)F)C3=O)c2)COC1 (stereo not drawn) [Example 21, 3-[5-[4-[[1-[2-[3-[3-[(4-methyl-1,2,4-triazol-3-yl)methyl]oxetan-3-yl]phenyl]-3-oxo-7-(trifluoromethyl)isoindolin-5-yl]azetidin-3-yl]oxymethyl]-1-piperidyl]-1-oxo-isoindolin-2-yl]piperidine-2,6-dione]
< 5 | > 70 | < 5 | > 70 | – | C[C@H]1CN(Cc2cc3c(c(C(F)(F)F)c2)CN(c2cccc(C4(Cc5nncn5C)COC4)c2)C3=O)CCN1CC1CCC(OC2CCN(c3ccc4c(c3F)CN(C3CCC(=O)NC3=O)C4=O)CC2)CC1 (stereo partly drawn) [Example 237, 3-[4-fluoro-1-oxo-5-(4-{[(1rs,4rs)-4-{[(2S)-2-methyl-4-{[2-(3-{3-[(4-methyl-4H-1,2,4-triazol-3-yl)methyl]oxetan-3-yl}phenyl)-3-oxo-7-(trifluoromethyl)-2,3-dihydro-1H-isoindol-5-yl]methyl}piperazin-1-yl]methyl}cyclohexyl]oxy}piperidin-1-yl)-2,3-dihydro-1H-isoindol-2-yl]piperidine-2,6-dione]
50 to 500 | 35 to 70 | < 5 | – | C (C ≤ 35) | CC(C)n1c(=O)n(C2CCC(=O)NC2=O)c2cccc(N3CCC(O[C@H]4CC[C@H](CN5CCN(Cc6cc7c(c(C(F)(F)F)c6)CN(c6cccc([C@]8(Cc9nncn9C)C[C@H](C#N)C8)c6)C7=O)CC[C@@H]5C)CC4)CC3)c21 (stereo partly drawn) [Example 326, (1r,3r)-3-[3-(6-{[(5S)-5-methyl-4-{[(1r,4r)-4-({1-[1-(2,6-dioxopiperidin-3-yl)-2-oxo-3-(propan-2-yl)-2,3-dihydro-1H-1,3-benzodiazol-4-yl]piperidin-4-yl}oxy)cyclohexyl]methyl}-1,4-diazepan-1-yl]methyl}-1-oxo-4-(trifluoromethyl)-2,3-dihydro-1H-isoindol-2-yl)phenyl]-3-[(4-methyl-4H-1,2,4-triazol-3-yl)methyl]cyclobutane-1-carbonitrile]
< 5 | > 70 | < 5 | 35 to 70 | – | C[C@H]1CN(C[C@H]2CC[C@@H](OC3CCN(c4ccc5c(c4F)CN(C4CCC(=O)NC4=O)C5=O)CC3)CC2)CCN1Cc1cc2c(c(C(F)(F)F)c1)CN(c1cccc(C3(Cc4nncn4C)COC3)c1)C2=O (stereo partly drawn) [Example 194, 3-[4-fluoro-1-oxo-5-(4-{[(1r,4r)-4-{[(3S)-3-methyl-4-{[2-(3-{3-[(4-methyl-4H-1,2,4-triazol-3-yl)methyl]oxetan-3-yl}phenyl)-3-oxo-7-(trifluoromethyl)-2,3-dihydro-1H-isoindol-5-yl]methyl}piperazin-1-yl]methyl}cyclohexyl]oxy}piperidin-1-yl)-2,3-dihydro-1H-isoindol-2-yl]piperidine-2,6-dione]
> 500 | – | > 500 | – | – | Cn1cnnc1CC1(c2cccc(N3Cc4c(cc(N5CCC6(C5)CN(c5ccc7c(c5)C(=O)N(C5CCC(=O)NC5=O)C7=O)C6)cc4C(F)(F)F)C3=O)c2)COC1 (stereo not drawn) [Example 127, 2-(2,6-dioxopiperidin-3-yl)-5-{6-[2-(3-{3-[(4-methyl-4H-1,2,4-triazol-3-yl)methyl]oxetan-3-yl}phenyl)-3-oxo-7-(trifluoromethyl)-2,3-dihydro-1H-isoindol-5-yl]-2,6-diazaspiro[3.4]octan-2-yl}-2,3-dihydro-1H-isoindole-1,3-dione]
50 to 500 | < 35 | > 500 | – | – | Cn1cnnc1CC1(c2cccc(NC(=O)c3cc(N4CC5(CCN(CC6CCN(c7ccc8c(c7)C(=O)N(C7CCC(=O)NC7=O)C8=O)CC6)CC5)C4)nc(C4CC4)n3)c2)COC1 (stereo not drawn) [Example 18, 2-cyclopropyl-6-[7-[[1-[2-(2,6-dioxo-3-piperidyl)-1,3-dioxo-isoindolin-5-yl]-4-piperidyl]methyl]-2,7-diazaspiro[3.5]nonan-2-yl]-N-[3-[3-[(4-methyl-1,2,4-triazol-3-yl)methyl]oxetan-3-yl]phenyl]pyrimidine-4-carboxamide]
50 to 500 | < 35 | > 500 | – | – | Cn1cnnc1CC1(c2cccc(N3Cc4c(cc(N5CCC(CN6CCC7(CC6)CN(c6ccc8c(c6)C(=O)N(C6CCC(=O)NC6=O)C8=O)C7)CC5)cc4C(F)(F)F)C3=O)c2)COC1 (stereo not drawn) [Example 23, 2-(2,6-dioxopiperidin-3-yl)-5-[7-({1-[2-(3-{3-[(4-methyl-4H-1,2,4-triazol-3-yl)methyl]oxetan-3-yl}phenyl)-3-oxo-7-(trifluoromethyl)-2,3-dihydro-1H-isoindol-5-yl]piperidin-4-yl}methyl)-2,7-diazaspiro[3.5]nonan-2-yl]-2,3-dihydro-1H-isoindole-1,3-dione]
5 to 50 | 35 to 70 | < 5 | < 35 | – | C[C@H]1C[C@@H](CN2CCC(CC3CCN(c4ccc5c(c4)C(=O)N(C4CCC(=O)NC4=O)C5=O)CC3)CC2)CN(Cc2cc3c(c(C(F)(F)F)c2)CN(c2cccc(C4(Cc5nncn5C)COC4)c2)C3=O)C1 (stereo partly drawn) [Example 93, 2-(2,6-dioxopiperidin-3-yl)-5-{4-[(1-{[(3S,5S)-5-methyl-1-{[2-(3-{3-[(4-methyl-4H-1,2,4-triazol-3-yl)methyl]oxetan-3-yl}phenyl)-3-oxo-7-(trifluoromethyl)-2,3-dihydro-1H-isoindol-5-yl]methyl}piperidin-3-yl]methyl}piperidin-4-yl)methyl]piperidin-1-yl}-2,3-dihydro-1H-isoindole-1,3-dione]
